Read-outs that look alike come from different tables or passages of the source.
Experiments:
Type in all cases: cell-based
[1] = system: SMN2 CJ mRNA; assay: Gene panel canonical junction qPCR assay, SMN2; settings: decrease in CJ mRNA levels, gene panel; read-out: SMN2 IC50
Method in brief: (§1)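 A673 or K562 cells were treated for 24 h at 37 °C with an 11-point 3-fold dilution, top dose 10 uM, DMSO ≤0.25%. Canonical junction mRNA in lysates was quantified by one-step RT-qPCR and normalized to GAPDH, GUSB or PPIA.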

[2] = system: HTT mRNA; assay: Splicing assay (RT-qPCR) monitoring HTT canonical junction (CJ) and alternative junction (AJ) mRNA isoforms; settings: A673 or K562 cells, 24 h treatment, top dose 10 uM
Method in brief: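 A673 or K562 cells treated 24 h at 37 °C with an 11-point 3-fold dilution (top 10 uM final, DMSO ≤0.25%). Lysates assayed by one-step RT-qPCR for HTT CJ and AJ isoforms, normalized to GAPDH, GUSB (K562) or PPIA (A673).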

[3] = system: Target C CJ mRNA; assay: Gene panel canonical junction qPCR assay, Target C; settings: decrease in CJ mRNA levels, gene panel; read-out: Target C IC50
Method in brief: as §1

[4] = system: HTT CJ mRNA; assay: Gene panel canonical junction qPCR assay, HTT; settings: decrease in CJ mRNA levels, gene panel; read-out: HTT IC50
Method in brief: as §1

[5] = decrease in CJ mRNA (50% response), read-out: HTT CJ AC50
[6] = increase in AJ mRNA (50% response), read-out: HTT AJ AC50

SMILES | IC50 [1] [µM] | AC50 [2, 5] [µM] | AC50 [2, 6] [µM] | IC50 [3] [µM] | IC50 [4] [µM]
Cc1cn2nc(-c3ccc4c(c3)CCN(C3CCN(C)C3)C4=O)cc(C)c2n1 (centres unmarked) [Compound 282, 6-{2,8-dimethylimidazo[1,2-b]pyridazin-6-yl}-2-(1-methylpyrrolidin-3-yl)-3,4-dihydroisoquinolin-1-one] | 1 to 10 | > 10 | > 10 | > 10 | > 10
Cc1cn2cc(-c3ccc4c(c3)CCN(C3CCNCC3)C4=O)cc(Cl)c2n1 [Compound 216] | < 0.1 | 1 to 10 | 1 to 10 | 1 to 10 | 1 to 10
Cc1cn2cc(-c3ccc4c(=O)n(C5CCN(C)CC5)cnc4c3)cc(F)c2n1 [Compound 207, 7-(8-fluoro-2-methylimidazo[1,2-a]pyridin-6-yl)-3-(1-methylpiperidin-4-yl)quinazolin-4(3H)-one] | 0.1 to 1 | 1 to 10 | 1 to 10 | 1 to 10 | 1 to 10
CN1CCC(c2ccc3c(=O)n(-c4ccc5nn(C)cc5c4)cnc3c2)CC1 [Compound 177, 3-(2-methyl-2H-indazol-5-yl)-7-(1-methylpiperidin-4-yl)quinazolin-4(3H)-one] | > 10 | > 10 | > 10 | 1 to 10 | > 10
Cn1cc2cc(-c3ccc4c(=O)n(C5CCNCC5)cnc4c3)cc(F)c2n1 [Compound 206, 7-(7-fluoro-2-methyl-2H-indazol-5-yl)-3-(piperidin-4-yl)quinazolin-4(3H)-one] | < 0.1 | 0.1 to 1 | 0.1 to 1 | 0.1 to 1 | 0.1 to 1
CN1CCC(Nc2ccc3c(=O)n(-c4ccc5cn(C)nc5c4)cnc3c2)CC1 [Compound 203, 3-(2-methyl-2H-indazol-6-yl)-7-((1-methylpiperidin-4-yl)amino)quinazolin-4(3H)-one] | > 10 | > 10 | > 10 | > 10 | > 10
Cc1cc(-c2ccc3nc(N4CCNCC4)[nH]c(=O)c3c2)cc2cn(C)nc12 [Compound 166, 6-(2,7-dimethyl-2H-indazol-5-yl)-2-(piperazin-1-yl)quinazolin-4(3H)-one] | 1 to 10 | 1 to 10 | 1 to 10 | 1 to 10 | 1 to 10
Cc1cc(-c2ccc3c(=O)n(C4CCN(C)CC4)cnc3c2F)cc2cn(C)nc12 [Compound 235, 7-(2,7-dimethyl-2H-indazol-5-yl)-8-fluoro-3-(1-methylpiperidin-4-yl)quinazolin-4(3H)-one] | 0.1 to 1 | > 10 | > 10 | > 10 | > 10
Cc1cn2cc(-c3ccc4c(=O)n(C5CCNCC5)ncc4c3)cc(C(F)(F)F)c2n1 [Compound 262] | < 0.1 | 1 to 10 | 1 to 10 | 1 to 10 | 1 to 10
CC[C@@H]1C[C@H](n2ncc3cc(-c4cc(C)c5nc(C)cn5n4)ccc3c2=O)CCN1 [Compound 304, 6-{2,8-dimethylimidazo[1,2-b]pyridazin-6-yl}-2-[(2R,4R)-2-ethylpiperidin-4-yl]phthalazin-1-one] | < 0.1 | 1 to 10 | 1 to 10 | 1 to 10 | 0.1 to 1
Cc1cn2cc(-c3ccc4c(=O)n(C5CCNCC5)ccc4c3)cc(F)c2n1 [Compound 276, 6-(8-fluoro-2-methylimidazo[1,2-a]pyridin-6-yl)-2-(piperidin-4-yl)isoquinolin-1(2H)-one] | < 0.1 | < 0.1 | < 0.1 | < 0.1 | < 0.1
Cc1cn2nc(-n3cnc4cc(N5CCNCC5)ccc4c3=O)cc(C)c2n1 [Compound 241, 3-(2,8-dimethylimidazo[1,2-b]pyridazin-6-yl)-7-(piperazin-1-yl)quinazolin-4(3H)-one] | 1 to 10 | 1 to 10 | 1 to 10 | 1 to 10 | 1 to 10
Cc1cn2cc(-c3ccc4c(c3)CCN(C3CCNCC3)C4=O)ncc2n1 [Compound 224] | 0.1 to 1 | > 10 | > 10 | > 10 | > 10
Cc1cc(-c2ccc3c(c2)CCN(C2CCNCC2)C3=O)cc2cn(C)nc12 [Compound 219] | < 0.1 | 1 to 10 | 1 to 10 | 1 to 10 | 1 to 10
Cc1cc(-c2nc3ccc(N(C)C4CCN(C)CC4)cc3c(=O)[nH]2)cc2cn(C)nc12 [Compound 239, 2-(2,7-dimethyl-2H-indazol-5-yl)-6-(methyl(1-methylpiperidin-4-yl)amino)quinazolin-4(3H)-one] | 1 to 10 | > 10 | > 10 | > 10 | > 10
CN1CCC(n2cnc3cc(-c4cn[nH]c4)ccc3c2=O)CC1 [Compound 299] | > 10 | > 10 | > 10 | > 10 | > 10

Reference: patent US20230159496A1, “COMPOUNDS AND METHODS FOR MODULATING SPLICING” (REMIX THERAPEUTICS INC., priority 2020, published 2023)
